In US20240158446A1, “CYCLIC COMPOUND HAVING SELECTIVE INHIBITORY ACTION ON KRAS OVER HRAS AND NRAS” (CHUGAI SEIYAKU KABUSHIKI KAISHA, priority 2021, published 2024):

Experiments:
[1] = target: GDP-bound NRAS wild-type protein (Homo sapiens, UniProt P01111); assay: Binding to NRAS by surface plasmon resonance (SPR), Single Cycle Kinetics; details: for NRAS/KRAS (ratio of KD value with respect to GDP-bound NRAS wild-type protein to KD value with respect to KRAS): SPR KD ratio NRAS/KRAS, class symbols
[2] = target: GDP-bound HRAS wild-type protein (Homo sapiens, UniProt P01112); assay: Binding to HRAS by surface plasmon resonance (SPR), Single Cycle Kinetics; details: for HRAS/KRAS (ratio of KD value with respect to GDP-bound HRAS wild-type protein to KD value with respect to KRAS): SPR KD ratio HRAS/KRAS, class symbols
[3] = SPR, GDP-bound NRAS wild-type protein vs GDP-bound KRAS wild-type protein
[4] = SPR, GDP-bound HRAS wild-type protein vs GDP-bound KRAS wild-type protein

GDP-bound HRAS wild-type protein, sequence (P01112 whole entry): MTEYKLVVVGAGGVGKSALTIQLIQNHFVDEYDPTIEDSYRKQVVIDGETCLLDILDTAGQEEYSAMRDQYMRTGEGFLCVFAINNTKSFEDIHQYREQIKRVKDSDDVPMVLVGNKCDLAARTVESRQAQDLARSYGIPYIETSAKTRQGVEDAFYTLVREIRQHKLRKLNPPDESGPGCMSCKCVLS
GDP-bound NRAS wild-type protein, sequence (P01111 whole entry): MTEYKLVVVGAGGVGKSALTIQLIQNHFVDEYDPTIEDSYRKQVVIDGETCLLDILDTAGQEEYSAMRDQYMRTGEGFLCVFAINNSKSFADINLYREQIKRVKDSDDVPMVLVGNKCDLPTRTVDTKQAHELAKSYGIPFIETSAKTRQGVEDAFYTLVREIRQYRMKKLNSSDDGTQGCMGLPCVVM

Row | SMILES | NRAS/KRAS (ratio of KD value for NRAS to KD value for KRAS) [1, 3] | HRAS/KRAS (ratio of KD value for HRAS to KD value for KRAS) [2, 4] | further results
1 | CCC[C@H]1C(=O)N[C@@H]([C@@H](C)CC)C(=O)N(C2CC2)CC(=O)N(C)[C@H]2C/C=C\CCN(C2=O)[C@@H](Cc2ccc(C)cc2)C(=O)N(C)CC(=O)N[C@@H](CCc2ccc(C(F)(F)F)c(CC)c2)C(=O)N2C[C@H](OCC)C[C@H]2C(=O)NC2(CC(C)(C)C2)C(=O)N(C)[C@@H](C2CCCC2)C(=O)N(C)[C@H](C(=O)N(C)C)CC(=O)N1C [PP2870] |  |  | NRAS/KRAS (ratio of KD value with respect to GDP-bound NRAS wild-type protein to KD value with respect to KRAS) [1]: A (a compound having 10 or more and less than 20 is denoted as A); HRAS/KRAS (ratio of KD value with respect to GDP-bound HRAS wild-type protein to KD value with respect to KRAS) [2]: A (a compound having 10 or more and less than 20 is denoted as A)
2 | CCO[C@@H]1C[C@H]2C(=O)NC3(CCC3)C(=O)N(C)[C@@H](C3CCCC3)C(=O)N(C)[C@H](C)CC(=O)N(C)[C@@H](CC(C)C)C(=O)N[C@@H]([C@@H](C)CC)C(=O)N(C)CC(=O)N(C)[C@H]3C/C=C\CCN(C3=O)[C@@H](Cc3ccc(C(F)(F)F)cc3)C(=O)N(C)CC(=O)N[C@@H](CCc3cc(F)c(C(F)(F)F)c(F)c3)C(=O)N2C1 [PP1100] | B (a compound having 3 or more and less than 10 is denoted as B) | B (a compound having 3 or more and less than 10 is denoted as B) | 
3 | CCO[C@@H]1C[C@H]2C(=O)NC3(CC(C)(C)C3)C(=O)N(C)[C@@H](C3CCCC3)C(=O)N(C)[C@H](C(=O)N(C)C)CC(=O)N(C)[C@@H](CC(C)C)C(=O)N[C@@H]([C@@H](C)CC)C(=O)N(C)CC(=O)N(C)[C@H]3C/C=C\CCN(C3=O)[C@@H](Cc3ccc(C4CC4)cc3)C(=O)N(C)CC(=O)N[C@@H](CCc3ccc(C(F)(F)F)c(OC)c3)C(=O)N2C1 [PP2691, (2S,8S,12R,14S,20S,23S,27S,30S,36S,38Z)-20-cyclopentyl-2-[(4-cyclopropylphenyl)methyl]-12-ethoxy-27-isobutyl-8-[2-[3-methoxy-4-(trifluoromethyl)phenyl]ethyl]-N,N,3′,3′,4,19,22,26,32,35-decamethyl-30-[(1S)-1-methylpropyl]-3,6,9,15,18,21,25,28,31,34,42-undecaoxo-spiro[1,4,7,10,16,19,22,26,29,32,35-undecazatricyclo[34.5.1.0^10,14]dotetracont-38-ene-17,1′-cyclobutane]-23-carboxamide] |  |  | NRAS/KRAS (ratio of KD value with respect to GDP-bound NRAS wild-type protein to KD value with respect to KRAS) [1]: AA (a compound having 20 or more is denoted as AA); HRAS/KRAS (ratio of KD value with respect to GDP-bound HRAS wild-type protein to KD value with respect to KRAS) [2]: A (a compound having 10 or more and less than 20 is denoted as A)
4 | CCC[C@H]1C(=O)N[C@@H]([C@@H](C)CC)C(=O)N(C)CC(=O)N(C)[C@H]2C/C=C\CCN(C2=O)[C@@H](Cc2ccc(C(F)(F)F)cc2)C(=O)N(C)CC(=O)N[C@@H](CCc2ccc(CC)c(OC)c2)C(=O)N2C[C@H](OCC)C[C@H]2C(=O)NC2(CC(C)(C)C2)C(=O)N(C)[C@@H](C2CCCC2)C(=O)N(C)[C@H](C(=O)N(C)C)CC(=O)N1C [PP2869] |  |  | NRAS/KRAS (ratio of KD value with respect to GDP-bound NRAS wild-type protein to KD value with respect to KRAS) [1]: A (a compound having 10 or more and less than 20 is denoted as A); HRAS/KRAS (ratio of KD value with respect to GDP-bound HRAS wild-type protein to KD value with respect to KRAS) [2]: A (a compound having 10 or more and less than 20 is denoted as A)
5 | CCO[C@@H]1C[C@H]2C(=O)NC3(CC(C)(C)C3)C(=O)N(C)[C@@H](C(CC)CC)C(=O)N(C)[C@H](C(=O)N(C)C)CC(=O)N(C)[C@@H](CC)C(=O)N[C@@H]([C@@H](C)CC)C(=O)N(C)CC(=O)N(C)[C@H]3C/C=C\CCN(C3=O)[C@@H](Cc3ccc(C(F)(F)F)cc3)C(=O)N(C)CC(=O)N[C@@H](CCc3ccc(Cl)c(Cl)c3)C(=O)N2C1 [PP2179] | AA (a compound having 20 or more is denoted as AA) | A (a compound having 10 or more and less than 20 is denoted as A) | 
6 | CCO[C@@H]1C[C@H]2C(=O)NC3(CCC3)C(=O)N(C)[C@@H](C(CC)CC)C(=O)N(C)[C@H](C(=O)N3CCOCC3)CC(=O)N(C)[C@@H](CC3CC3)C(=O)N[C@@H]([C@@H](C)CC)C(=O)N(C)CC(=O)N(C)[C@H]3C/C=C\CCN(C3=O)[C@@H](Cc3ccc(F)cc3)C(=O)N(C)CC(=O)N[C@@H](CCc3cc(F)c(C(F)(F)F)c(F)c3)C(=O)N2C1 [PP1527] |  |  | NRAS/KRAS (ratio of KD value for NRAS to KD value for KRAS) ([1]; SPR, GDP-bound NRAS wild-type protein vs GDP-bound KRAS wild-type protein, KD ratio class): A (a compound having 10 or more and less than 20 is denoted as A); HRAS/KRAS (ratio of KD value for HRAS to KD value for KRAS) ([2]; SPR, GDP-bound HRAS wild-type protein vs GDP-bound KRAS wild-type protein, KD ratio class): A (a compound having 10 or more and less than 20 is denoted as A)
7 | CCO[C@@H]1C[C@H]2C(=O)NC3(CCC3)C(=O)N(C)[C@@H](C3CCCC3)C(=O)N(C)[C@H](C(=O)N3CCOCC3)CC(=O)N(C)[C@@H](CC(C)C)C(=O)N[C@@H]([C@H](C)CC)C(=O)N(C)CC(=O)N(C)[C@H]3CCCCN(C3=O)[C@@H](Cc3ccc(C(F)(F)F)cc3)C(=O)N(C)CC(=O)N[C@@H](CCc3cc(F)c(C(F)(F)F)c(F)c3)C(=O)N2C1 [PP0806] |  |  | NRAS/KRAS (ratio of KD value with respect to NRAS to KD value with respect to KRAS) [1, 3]: B (a compound having 3 or more and less than 10 is denoted as B); HRAS/KRAS (ratio of KD value with respect to HRAS to KD value with respect to KRAS) [2, 4]: B (a compound having 3 or more and less than 10 is denoted as B)
8 | CC[C@H](C)[C@@H]1NC(=O)[C@H](CC(C)C)N(C)C(=O)C[C@@H](C(=O)N2CCOCC2)N(C)C(=O)[C@H](C2CCCC2)N(C)C(=O)C2(CCC2)NC(=O)[C@@H]2[C@@H](OCC3CC3)CCN2C(=O)[C@H](CCc2cc(F)c(C(F)(F)F)c(F)c2)NC(=O)CN(C)C(=O)[C@H](Cc2ccc(C(F)(F)F)cc2)N2CCCCC[C@@H](C2=O)N(C)C(=O)CN(C)C1=O [PP1010] | B (a compound having 3 or more and less than 10 is denoted as B) | B (a compound having 3 or more and less than 10 is denoted as B) | 
9 | CCCOC[C@H]1C(=O)N[C@@H]([C@@H](C)CC)C(=O)N(C)CC(=O)N(C)[C@H]2C/C=C\CCN(C2=O)[C@@H](Cc2ccc(C)cc2)C(=O)N(C)CC(=O)N[C@@H](CCc2ccc(C(F)(F)F)c(OC)c2)C(=O)N2C[C@H](OCC)C[C@H]2C(=O)N(C)C2(CCC2)C(=O)N(C)[C@@H](C(CC)CC)C(=O)N(C)[C@H](C(=O)N(C)C)CC(=O)N1C [PP2323] | A (a compound having 10 or more and less than 20 is denoted as A) | A (a compound having 10 or more and less than 20 is denoted as A) | 
10 | CCC[C@H]1C(=O)N[C@@H](C2CCCC2)C(=O)N(C)CC(=O)N(C)[C@H]2C/C=C\CCN(C2=O)[C@@H](Cc2ccc(C)cc2)C(=O)N(C)CC(=O)N[C@@H](CCc2ccc(C(F)(F)F)c(Cl)c2)C(=O)N2C[C@H](OCC)C[C@H]2C(=O)NC2(CC(C)(C)C2)C(=O)N(C)[C@@H](CC(F)(F)F)C(=O)N(C)[C@H](C(=O)N(C)C)CC(=O)N1C [PP2192] | A (a compound having 10 or more and less than 20 is denoted as A) | A (a compound having 10 or more and less than 20 is denoted as A) | 
11 | CCC[C@H]1C(=O)N[C@@H]([C@@H](C)CC)C(=O)N(C2CC2)CC(=O)N(C)[C@H]2C/C=C\CCN(C2=O)[C@@H](Cc2ccc(C)cc2)C(=O)N(C)CC(=O)N[C@@H](CCc2cc(F)c(Cl)c(OC)c2)C(=O)N2C[C@H](OCC)C[C@H]2C(=O)NC2(CC(C)(C)C2)C(=O)N(C)[C@@H](C2CCCC2)C(=O)N(C)[C@H](C(=O)N(C)C)CC(=O)N1C [PP2871] |  |  | NRAS/KRAS (ratio of KD value with respect to GDP-bound NRAS wild-type protein to KD value with respect to KRAS) [1]: A (a compound having 10 or more and less than 20 is denoted as A); HRAS/KRAS (ratio of KD value with respect to GDP-bound HRAS wild-type protein to KD value with respect to KRAS) [2]: A (a compound having 10 or more and less than 20 is denoted as A)
12 | CCC[C@H]1C(=O)N[C@@H]([C@@H](C)CC)C(=O)N(C)CC(=O)N(C)[C@H]2C/C=C\CCN(C2=O)[C@@H](Cc2ccc(C)cc2)C(=O)N(C)CC(=O)N[C@@H](CCc2cc(F)c(C(F)(F)F)c(F)c2)C(=O)N2C[C@H](OCC)C[C@H]2C(=O)NC2(CC(C)(C)C2)C(=O)N(C)[C@@H](CC(C)C)C(=O)N(C)[C@H](C(=O)N(C)C)CC(=O)N1C [PP2995] | A (a compound having 10 or more and less than 20 is denoted as A) | A (a compound having 10 or more and less than 20 is denoted as A) | 
13 | CC[C@H](C)[C@@H]1NC(=O)[C@H](CC(C)C)N(C)C(=O)C[C@@H](C(=O)N2C[C@@H](C)O[C@@H](C)C2)N(C)C(=O)[C@H](C2CCCC2)N(C)C(=O)C2(CCCC2)NC(=O)[C@@H]2CCCN2C(=O)[C@H](CCc2ccc(C(F)(F)F)c(Cl)c2)NC(=O)CN(C)C(=O)[C@H](Cc2ccc(F)cc2)N2CCCCC[C@@H](C2=O)N(C)C(=O)CN(C)C1=O [PP1151] | B (a compound having 3 or more and less than 10 is denoted as B) | B (a compound having 3 or more and less than 10 is denoted as B) | 
14 | CCCOC[C@H]1C(=O)N[C@@H]([C@@H](C)CC)C(=O)N(C)CC(=O)N(C)[C@H]2C/C=C\CCN(C2=O)[C@@H](Cc2ccc(C)cc2)C(=O)N(C)CC(=O)N[C@@H](CCc2cc(F)c(C(F)(F)F)c(F)c2)C(=O)N2C[C@H](CCC)C[C@H]2C(=O)NC2(CC(C)(C)C2)C(=O)N(C)[C@@H](C2CCCC2)C(=O)N(C)[C@H](C(=O)N(C)C)CC(=O)N1C [PP2203] | A (a compound having 10 or more and less than 20 is denoted as A) | A (a compound having 10 or more and less than 20 is denoted as A) | 
